The values below come from ChEMBL document CHEMBL2375285, “Novel (coumarin-3-yl)carbamates as selective MAO-B inhibitors: synthesis, in vitro and in vivo assays, theoretical evaluation of ADME properties and docking study” (Eur J Med Chem, 2013).

Molecules are shown by their SMILES. Active and inactive are the calls of the source. The rule behind the calls is not given here.

Data set [1] concerns Mus musculus. In words: Potentiation of L-dopa/carbidopa activity in reserpine-treated CD1 mouse assessed as increase in straightening at 100 mg/kg, ip administered 22 hrs post reserpine challenge followed by L-dopa/carbidopa adminstration at 30 mins measured after 1 hr relative to control. In kind it is functional, organism-based. The arrangement: dose 100 mg/kg.
The test system of data set [2] is Mus musculus. In words: Potentiation of L-dopa/carbidopa activity in reserpine-treated CD1 mouse assessed as increase in movement at 100 mg/kg, ip administered 22 hrs post reserpine challenge followed by L-dopa/carbidopa adminstration at 30 mins measured after 1 hr relative to control. In kind it is functional, organism-based. The arrangement: dose 100 mg/kg.
Data set [3] relates to Mus musculus. Briefly: Potentiation of L-dopa/carbidopa activity in reserpine-treated CD1 mouse assessed as increase in velocity at 100 mg/kg, ip administered 22 hrs post reserpine challenge followed by L-dopa/carbidopa adminstration at 30 mins measured after 1 hr relative to control. In kind it is functional, organism-based. The arrangement: dose 100 mg/kg.
Data set [4] concerns Mus musculus. In words: Potentiation of L-dopa/carbidopa activity in reserpine-treated CD1 mouse assessed as increase in motor activity at 100 mg/kg, ip administered 22 hrs post reserpine challenge followed by L-dopa/carbidopa adminstration at 30 mins measured after 1 hr relative to control. The arrangement: dose 100 mg/kg. In kind it is functional, organism-based.
The test system of data set [5] is Mus musculus. In words: Potentiation of L-dopa/carbidopa activity in reserpine-treated CD1 mouse assessed as increase in movement at 10 mg/kg, ip administered 22 hrs post reserpine challenge followed by L-dopa/carbidopa adminstration at 30 mins measured after 1 hr relative to control. In kind it is functional, organism-based. The arrangement: dose 10 mg/kg.
Data set [6] has as its system Mus musculus. In words: Potentiation of L-dopa/carbidopa activity in reserpine-treated CD1 mouse assessed as increase in motor activity at 10 mg/kg, ip administered 22 hrs post reserpine challenge followed by L-dopa/carbidopa adminstration at 30 mins measured after 1 hr relative to control. In kind it is functional, organism-based. The arrangement: dose 10 mg/kg.
For data set [7], the system named is Mus musculus. Briefly: Neurotoxicity in CD1 mouse assessed as decrease in motor activity at 10 mg/kg, ip measured for 1 hr relative to control. In kind it is toxicity, organism-based. The arrangement: dose 10 mg/kg, route intraperitoneal. As to conditions: in vivo.
Data set [8] concerns Mus musculus. In words: Neurotoxicity in CD1 mouse assessed as decrease in velocity at 10 mg/kg, ip measured for 1 hr relative to control. In kind it is toxicity, organism-based. The arrangement: dose 10 mg/kg, route intraperitoneal. As to conditions: in vivo.
Data set [9] concerns Mus musculus. In words: Neurotoxicity in CD1 mouse assessed as decrease in movement at 10 mg/kg, ip measured for 1 hr relative to control. As to conditions: in vivo. In kind it is toxicity, organism-based. The arrangement: dose 10 mg/kg, route intraperitoneal.
Data set [10] deals with Mus musculus. In words: Neurotoxicity in CD1 mouse assessed as decrease in straightening at 10 mg/kg, ip measured for 1 hr relative to control. To be noted: in vivo. The arrangement: dose 10 mg/kg, route intraperitoneal. In kind it is toxicity, organism-based.
For data set [11], the system named is Mus musculus. In words: Toxicity in reserpine-treated CD1 mouse assessed as mortality at 100 mg/kg, ip measured for 24 to 48 hrs. In kind it is organism-based. The arrangement: dose 100 mg/kg, route intraperitoneal. To be noted: in vivo.
Data set [12] has as its system Mus musculus. In words: Potentiation of L-dopa/carbidopa activity in reserpine-treated CD1 mouse assessed as increase in straightening at 10 mg/kg, ip administered 22 hrs post reserpine challenge followed by L-dopa/carbidopa adminstration at 30 mins measured after 1 hr relative to control. In kind it is functional, organism-based. The arrangement: dose 10 mg/kg.
Data set [13] has as its system Mus musculus. In words: Potentiation of L-dopa/carbidopa activity in reserpine-treated CD1 mouse assessed as increase in velocity at 10 mg/kg, ip administered 22 hrs post reserpine challenge followed by L-dopa/carbidopa adminstration at 30 mins measured after 1 hr relative to control. In kind it is functional, organism-based. The arrangement: dose 10 mg/kg.

As to `O=C(Nc1cc2ccccc2oc1=O)OCc1ccccc1`, the outcome in data set [1], in data set [2], in data set [3], in data set [4], in [5] and in data set [6] was Active. Also, the Activity result in data set [7], in data set [8], in data set [9], in data set [10] and in data set [11] was “Non-toxic” each time.

As to `C#CCN(C)[C@H](C)Cc1ccccc1` [SELEGILINE], the outcome in [12], in [5], in data set [13] and in data set [6] was Active. Further, the Activity result in [7], in [8], in [9] and in [10] was “Toxic” throughout.
